Measured values reported in publication PMC6580715 (Clinical Medicine Insights. Endocrinology and Diabetes, 2019).
No end group written: not given here.

What was measured:
1.1B4 beta-cells = test: Beta-cell proliferation, Ki-67 staining, 1.1B4; format: cell-based, human; settings: 1.1B4, 10^-8 and 10^-6 M, n = 3
BRIN-BD11 beta-cells [1] = test: Beta-cell proliferation, Ki-67 staining, BRIN-BD11; format: cell-based, rodent; settings: BRIN BD11, 10^-8 and 10^-6 M, n = 3
DPP-4 = test: 50 mM triethanolamine/HCl; settings: 37°C, up to 8 hours
BRIN-BD11 beta-cells [2] = test: In vitro insulin secretion from BRIN-BD11 beta-cells; format: cell-based, rodent; settings: peptides 10^-12-10^-6 M, 20-minute incubation, insulin radioimmunoassay, n = 8, vs 16.7 mM glucose
BRIN-BD11 beta-cells [3] = test: Protection against cytokine-induced apoptosis, TUNEL, BRIN-BD11; format: cell-based, rodent; settings: n = 3

## GLP-1: GLP-1 positive control (HAEGTFTSDVSSYLEGQAAKEFIAWLVKGR; ends and bridges not checked; UniProt P01275 98-127, looked up) [reference compound]
1.1B4 beta-cells
  beta-cell proliferation vs control cultures: significantly (P < .05 to P < .001) increased
BRIN-BD11 beta-cells [1]
  beta-cell proliferation vs control cultures: significantly (P < .05 to P < .001) increased

## YPIKPEAPGEDK(PAL)SPEELNRYYASLRHYLNLVTRQRY
DPP-4
  fragment found: PYY(3-36)(Lys^12PAL), 8 h

## YPIKPEAPGEDK(PAL)SPEELNRYYASLRHYLNLVTRQRY [PYY(1-36)(Lys^12PAL)]
BRIN-BD11 beta-cells [2]
  insulin secretion at 16.7 mM glucose (GSIS): had no impact on GSIS
1.1B4 beta-cells
  beta-cell proliferation vs control cultures: significantly increased (P < .05 to P < .01) the proliferation of both beta-cell lines
BRIN-BD11 beta-cells [3]; BRIN BD11, 10^-8 M only, cytokine cocktail
  cytokine-induced apoptosis vs cytokine cocktail control: barring PYY(1-36)(Lys^12PAL) at 10^-8 M
BRIN-BD11 beta-cells [3]; BRIN BD11, 10^-8 and 10^-6 M, cytokine cocktail (IL-1β, IFNγ, TNFα)
  cytokine-induced apoptosis vs cytokine cocktail control: offered some protection against apoptosis
BRIN-BD11 beta-cells [3]; BRIN BD11, same concentration, cytokine cocktail
  protection against apoptosis compared with PYY(1-36): significantly (P < .05 to P < .01) less efficacious
